According to US10681909B2, “Herbicidal triazoles” (FMC Corporation, priority 2014, dated 2020):

Assays:
pigweed [1] = assay: Test C postemergence; assay type: in vivo, Amaranthus retroflexus
Text: (§1) Seeds of plant species selected from blackgrass (Alopecurus myosuroides), ryegrass, Italian (Italian ryegrass, Lolium multiflorum), wheat (winter wheat, Triticum aestivum), galium (catchweed bedstraw, Galium aparine), corn (Zea mays), crabgrass, large (large crabgrass, Digitaria sanguinalis), foxtail, giant, (giant foxtail, Setaria faberii), johnsongrass (Sorghum halepense), lambsquarters (Chenopodium album), morningglory (Ipomoea coccinea), nutsedge, yellow (yellow nutsedge, Cyperus esculentus), pigweed (Amaranthus retroflexus), ragweed (common ragweed, Ambrosia elatior), soybean (Glycine max), barnyardgrass (Echinochloa crus-galli), oilseed rape (Brassica napus), waterhemp (common waterhemp, Amaranthus rudis), and velvetleaf (Abutilon theophrasti) were planted into a blend of loam soil and sand and treated preemergence with test chemicals formulated in a non-phytotoxic solvent mixture which included a surfactant. At the same time, plants selected from these crop and weed species and also chickweed (common chickweed, Stellaria media), oat, wild (wild oat, Avena fatua), and kochia (Kochia scoparia), were planted in pots containing Sunshine Redi-Earth® planting medium comprising spaghnum peat moss, vermiculite, starter nutrients and dolomitic limestone and treated with postemergence applications of test chemicals formulated in the same manner. Plants ranged in height from 2 to 18 cm (1- to 4-leaf stage) for postemergence treatments. […] A dash (-) response means no test result.

ragweed = assay: Test C postemergence; assay type: in vivo, Ambrosia elatior
Text: as §1

blackgrass = assay: Test C postemergence; assay type: in vivo, Alopecurus myosuroides
Text: as §1

pigweed [2] = assay: Test A preemergence; assay type: in vivo, Amaranthus retroflexus; conditions: Amaranthus retroflexus, pre-emergence, 240 h, 0 to 100 scale (0 no effect, 100 complete control), read-out: Plant response rating, Pigweed; for pest or weed control at 125 g/ha: 125 g ai/ha; for pest or weed control at 500 g/ha: 500 g ai/ha, approx. 10 d
Outline: (§2)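 Loam/sand soil mix; compound in non-phytotoxic solvent + surfactant. Pre: directed soil spray right after planting seed. Post: potted plants 2–10 cm, 1–2 leaf stage, sprayed with same formulation.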

nutsedge, yellow = assay: Test C postemergence; assay type: in vivo, Cyperus esculentus
Text: as §1

ducksalad = assay: Test B flooded paddy test; assay type: in vivo, Heteranthera limosa; conditions: Heteranthera limosa, 360 h, 125 g ai/ha, applied to paddy water at 2-leaf stage, visual rating after 13 to 15 d, scale 0 (no effect) to 100 (complete control), read-out: Plant response rating, Ducksalad, Flood
Outline: (§3)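 Pots were flooded to 3 cm above the soil at treatment, and compounds were applied directly into the paddy water. That depth was held throughout. After 13 to 15 d in a greenhouse, plants were rated visually against untreated controls.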

ryegrass, Italian = assay: Test C postemergence; assay type: in vivo, Lolium multiflorum
Text: as §1

barnyardgrass [3] = assay: Test C postemergence; assay type: in vivo, Echinochloa crus-galli
Text: as §1

rice = assay: Test B flooded paddy test; assay type: in vivo, Oryza sativa; conditions: Oryza sativa, 360 h, 125 g ai/ha, applied to paddy water at 2-leaf stage, visual rating after 13 to 15 d, scale 0 (no effect) to 100 (complete control), read-out: Plant response rating, Rice, Flood
Outline: as §3

foxtail, giant [4] = assay: Test A postemergence; assay type: in vivo, Setaria faberii; conditions: Setaria faberi, post-emergence, 240 h, 0 to 100 scale (0 no effect, 100 complete control), approx. 10 d, read-out: Plant response rating, Foxtail, Giant; for pest or weed control at 125 g/ha: 125 g ai/ha; for pest or weed control at 500 g/ha: 500 g ai/ha
Outline: as §2

oilseed rape = assay: Test C postemergence; assay type: in vivo, Brassica napus; conditions: Oilseed Rape
Text: as §1

foxtail, giant [5] = assay: Test C postemergence; assay type: in vivo, Setaria faberii
Text: as §1

johnsongrass = assay: Test C postemergence; assay type: in vivo, Sorghum halepense
Text: as §1

chickweed = assay: Test C postemergence; assay type: in vivo, Stellaria media
Text: as §1

corn = assay: Test A postemergence; assay type: in vivo, Zea mays; conditions: Zea mays, post-emergence, 240 h, 0 to 100 scale (0 no effect, 100 complete control), approx. 10 d; for Corn plant response rating (crop injury, 0 = no effect, 100 = complete kill) at 125 g/ha: 125 g ai/ha; for Corn plant response rating (crop injury, 0 = no effect, 100 = complete kill) at 500 g/ha: 500 g ai/ha
Outline: as §2

oat, wild = assay: Test C postemergence; assay type: in vivo, Avena fatua
Text: as §1

wheat (winter wheat) = assay: Test C postemergence; assay type: in vivo, Triticum aestivum
Text: as §1

barnyardgrass [6] = assay: Test A postemergence; assay type: in vivo, Echinochloa crus-galli; conditions: Echinochloa crus-galli, post-emergence, 240 h, 0 to 100 scale (0 no effect, 100 complete control), approx. 10 d, read-out: Plant response rating, Barnyardgrass; for pest or weed control at 125 g/ha: 125 g ai/ha; for pest or weed control at 500 g/ha: 500 g ai/ha
Outline: as §2

velvetleaf = assay: Test C postemergence; assay type: in vivo, Abutilon theophrasti
Text: as §1

kochia = assay: Test C postemergence; assay type: in vivo, Kochia scoparia
Text: as §1

## COc1nc(-c2ccc(F)cc2)nn1Cc1ccnc(C(F)(F)F)c1 [Compound 9, 4-[[3-(4-fluorophenyl)-5-methoxy-1H-1,2,4-triazol-1-yl]methyl]-2-(trifluoromethyl)pyridine]
Pigweed [1]; 16 g ai/ha
  Plant response rating (scale of 0 to 100 where 0 is no effect and 100 is complete control): 75
Pigweed [1]; 31 g ai/ha
  Plant response rating (scale of 0 to 100 where 0 is no effect and 100 is complete control): 85
Pigweed [1]; 62 g ai/ha
  Plant response rating (scale of 0 to 100 where 0 is no effect and 100 is complete control): 90
Pigweed [1]; 125 g ai/ha
  Plant response rating (scale of 0 to 100 where 0 is no effect and 100 is complete control): 85
ragweed; 16 g ai/ha
  Plant response rating (scale of 0 to 100 where 0 is no effect and 100 is complete control): 15
ragweed; 31 g ai/ha
  Plant response rating (scale of 0 to 100 where 0 is no effect and 100 is complete control): 25
ragweed; 62 g ai/ha
  Plant response rating (scale of 0 to 100 where 0 is no effect and 100 is complete control): 25
ragweed; 125 g ai/ha
  Plant response rating (scale of 0 to 100 where 0 is no effect and 100 is complete control): 50
blackgrass; 16 g ai/ha
  Plant response rating (scale of 0 to 100 where 0 is no effect and 100 is complete control): 5
blackgrass; 31 g ai/ha
  Plant response rating (scale of 0 to 100 where 0 is no effect and 100 is complete control): 5
blackgrass; 62 g ai/ha
  Plant response rating (scale of 0 to 100 where 0 is no effect and 100 is complete control): 5
blackgrass; 125 g ai/ha
  Plant response rating (scale of 0 to 100 where 0 is no effect and 100 is complete control): 15
Pigweed [2]
  pest or weed control at 125 g/ha: 100%
  pest or weed control at 500 g/ha: 100%
nutsedge, yellow; 16 g ai/ha
  Plant response rating (scale of 0 to 100 where 0 is no effect and 100 is complete control): 0
nutsedge, yellow; 31 g ai/ha
  Plant response rating (scale of 0 to 100 where 0 is no effect and 100 is complete control): 0
nutsedge, yellow; 62 g ai/ha
  Plant response rating (scale of 0 to 100 where 0 is no effect and 100 is complete control): 0
nutsedge, yellow; 125 g ai/ha
  Plant response rating (scale of 0 to 100 where 0 is no effect and 100 is complete control): 5
ducksalad
  pest or weed control at 125 g/ha: 20%
ryegrass, Italian; 16 g ai/ha
  Plant response rating (scale of 0 to 100 where 0 is no effect and 100 is complete control): 0
ryegrass, Italian; 31 g ai/ha
  Plant response rating (scale of 0 to 100 where 0 is no effect and 100 is complete control): 5
ryegrass, Italian; 62 g ai/ha
  Plant response rating (scale of 0 to 100 where 0 is no effect and 100 is complete control): 5
ryegrass, Italian; 125 g ai/ha
  Plant response rating (scale of 0 to 100 where 0 is no effect and 100 is complete control): 5
Barnyardgrass [3]; 16 g ai/ha
  Plant response rating (scale of 0 to 100 where 0 is no effect and 100 is complete control): 5
Barnyardgrass [3]; 31 g ai/ha
  Plant response rating (scale of 0 to 100 where 0 is no effect and 100 is complete control): 10
Barnyardgrass [3]; 62 g ai/ha
  Plant response rating (scale of 0 to 100 where 0 is no effect and 100 is complete control): 10
Barnyardgrass [3]; 125 g ai/ha
  Plant response rating (scale of 0 to 100 where 0 is no effect and 100 is complete control): 20
rice
  plant injury at 125 g/ha: 0%
foxtail, giant [4]
  pest or weed control at 125 g/ha: 80%
  pest or weed control at 500 g/ha: 100%
Oilseed rape; 16 g ai/ha
  Plant response rating (scale of 0 to 100 where 0 is no effect and 100 is complete control): 40
Oilseed rape; 31 g ai/ha
  Plant response rating (scale of 0 to 100 where 0 is no effect and 100 is complete control): 55
Oilseed rape; 62 g ai/ha
  Plant response rating (scale of 0 to 100 where 0 is no effect and 100 is complete control): 80
Oilseed rape; 125 g ai/ha
  Plant response rating (scale of 0 to 100 where 0 is no effect and 100 is complete control): 70
foxtail, giant [5]; 16 g ai/ha
  Plant response rating (scale of 0 to 100 where 0 is no effect and 100 is complete control): 10
foxtail, giant [5]; 31 g ai/ha
  Plant response rating (scale of 0 to 100 where 0 is no effect and 100 is complete control): 15
foxtail, giant [5]; 62 g ai/ha
  Plant response rating (scale of 0 to 100 where 0 is no effect and 100 is complete control): 15
foxtail, giant [5]; 125 g ai/ha
  Plant response rating (scale of 0 to 100 where 0 is no effect and 100 is complete control): 20
johnsongrass; 16 g ai/ha
  Plant response rating (scale of 0 to 100 where 0 is no effect and 100 is complete control): 0
johnsongrass; 31 g ai/ha
  Plant response rating (scale of 0 to 100 where 0 is no effect and 100 is complete control): 5
johnsongrass; 62 g ai/ha
  Plant response rating (scale of 0 to 100 where 0 is no effect and 100 is complete control): 5
johnsongrass; 125 g ai/ha
  Plant response rating (scale of 0 to 100 where 0 is no effect and 100 is complete control): 10
chickweed; 16 g ai/ha
  Plant response rating (scale of 0 to 100 where 0 is no effect and 100 is complete control): 70
chickweed; 31 g ai/ha
  Plant response rating (scale of 0 to 100 where 0 is no effect and 100 is complete control): 75
chickweed; 62 g ai/ha
  Plant response rating (scale of 0 to 100 where 0 is no effect and 100 is complete control): 75
chickweed; 125 g ai/ha
  Plant response rating (scale of 0 to 100 where 0 is no effect and 100 is complete control): 80
corn
  Corn plant response rating (crop injury, 0 = no effect, 100 = complete kill) at 125 g/ha: 40%
  Corn plant response rating (crop injury, 0 = no effect, 100 = complete kill) at 500 g/ha: 80%
oat, wild; 16 g ai/ha
  Plant response rating (scale of 0 to 100 where 0 is no effect and 100 is complete control): 5
oat, wild; 31 g ai/ha
  Plant response rating (scale of 0 to 100 where 0 is no effect and 100 is complete control): 5
oat, wild; 62 g ai/ha
  Plant response rating (scale of 0 to 100 where 0 is no effect and 100 is complete control): 5
oat, wild; 125 g ai/ha
  Plant response rating (scale of 0 to 100 where 0 is no effect and 100 is complete control): 10
Wheat (winter wheat); 16 g ai/ha
  Plant response rating (scale of 0 to 100 where 0 is no effect and 100 is complete control): 0
Wheat (winter wheat); 31 g ai/ha
  Plant response rating (scale of 0 to 100 where 0 is no effect and 100 is complete control): 0
Wheat (winter wheat); 62 g ai/ha
  Plant response rating (scale of 0 to 100 where 0 is no effect and 100 is complete control): 0
Wheat (winter wheat); 125 g ai/ha
  Plant response rating (scale of 0 to 100 where 0 is no effect and 100 is complete control): 5
Barnyardgrass [6]
  pest or weed control at 125 g/ha: 70%
  pest or weed control at 500 g/ha: 90%
velvetleaf; 16 g ai/ha
  Plant response rating (scale of 0 to 100 where 0 is no effect and 100 is complete control): 25
velvetleaf; 31 g ai/ha
  Plant response rating (scale of 0 to 100 where 0 is no effect and 100 is complete control): 35
velvetleaf; 62 g ai/ha
  Plant response rating (scale of 0 to 100 where 0 is no effect and 100 is complete control): 35
velvetleaf; 125 g ai/ha
  Plant response rating (scale of 0 to 100 where 0 is no effect and 100 is complete control): 35
kochia; 16 g ai/ha
  Plant response rating (scale of 0 to 100 where 0 is no effect and 100 is complete control): 95
kochia; 31 g ai/ha
  Plant response rating (scale of 0 to 100 where 0 is no effect and 100 is complete control): 90
kochia; 62 g ai/ha
  Plant response rating (scale of 0 to 100 where 0 is no effect and 100 is complete control): 90
kochia; 125 g ai/ha
  Plant response rating (scale of 0 to 100 where 0 is no effect and 100 is complete control): 90

## CCCn1nc(-c2ccc(F)cc2)nc1Cc1ccnc(C(F)(F)F)c1 [Compound 17, 4-[[3-(4-fluorophenyl)-1-propyl-1H-1,2,4-triazol-5-yl]methyl]-2-(trifluoromethyl)pyridine]
Pigweed [2]
  pest or weed control at 125 g/ha: 100%
  pest or weed control at 500 g/ha: 100%
ducksalad
  pest or weed control at 125 g/ha: 70%
rice
  plant injury at 125 g/ha: 15%
foxtail, giant [4]
  pest or weed control at 125 g/ha: 90%
  pest or weed control at 500 g/ha: 90%
corn
  Corn plant response rating (crop injury, 0 = no effect, 100 = complete kill) at 125 g/ha: 50%
  Corn plant response rating (crop injury, 0 = no effect, 100 = complete kill) at 500 g/ha: 70%
Barnyardgrass [6]
  pest or weed control at 125 g/ha: 70%
  pest or weed control at 500 g/ha: 90%
